Results as given in patent US20240024290A1, “PHARMACEUTICAL COMPOSITIONS COMPRISING CANNABINOID AGONIST” (ARTELO BIOSCIENCES LIMITED, priority 2020, published 2024).
Entries after “also recorded” stand apart in the source; their conditions may differ.

Experiment: Forced degradation study of the active substance (HPLC assay area %, sample observations)
Type: physicochemical
Experimental: HPLC Conditions • Instrument: Agilent 1100/1200 • Column: YMC Triart Phenyl, 4.6×150 mm. 3 μm particle size (ex-YMC P.N.TPH12S03-1546PTH) • Mobile Phase: A—10 mM Ammonium acetate pH 6.0 • B—Acetonitrile • Flow Rate: 1.0 ml·min-1 • Injection Volume: 5 μl • Detection: UV @ 220 nm • Column Temp: 30° C. • Post Run: 4 minutes
• Diluent: Acetonitrile:deionised water (1:1) • Standard Solution: Make up a solution of 0.2 mg/ml. This is to be made up fresh prior to use at T=3 and T=7 days.
Accurately weigh […] of the active substance into a 100 mL volumetric flask and dissolve in 50 mL of diluent. Dilute the resulting solution to volume with diluent and mix well.
Table 1 below details the different study tests performed. All solution samples are prepared and stored in sealed vials and heated samples are cooled to ambient prior to sampling to prevent evaporation. Analysis took place on days 3 and 7 after stressing initiation for solutions described for Tests 1-6 and once exposure was complete for samples described in Tests 7-10. Due to the low levels of degradation observed at 7 days, Tests 3, 4 and 5 were heated to 80° C. for a further 4 days and analysed, and Test 6 was analysed after a further 6 days.
The photostability samples were exposed to a total of 1.92 million lux hours and an integrated near-UV energy of 374.6 Whm^−2.

**Q.** Which Sample observations (Test 1 Control (solution, ambient temperature), over study period, listed as active substance) does the source give for `CCS(=O)(=O)Nc1ccc2c(c1)nc(C(C)(C)C)n2CC1CCC(F)(F)CC1` [Compound I, N-(2-(tert-butyl)-1-((4,4-difluorocyclohexyl)methyl)-1H-benzimidazol-5-yl)ethanesulfonamide] here?
**A.** Clear colourless solution; also recorded: No change over study period

**Q.** And the “Assay of active substance (area %)” value (Test 1 solution control, 0 days)?
**A.** 99.40 area %

**Q.** And the “Assay of active substance (area %)” value (Test 1 solution control, 3 days)?
**A.** 99.42 area %

**Q.** And the “Assay of active substance (area %)” value (Test 1 solution control, 7 days)?
**A.** 99.30 area %

**Q.** What about the “Assay of active substance (area %)” value (Test 1 solution control, 11 days) of the same molecule?
**A.** 99.39 area %

**Q.** What about the Sample observations (Test 2 Solid state 100° C., over study period, listed as active substance) of the same molecule?
**A.** orange solid over study period.

**Q.** And the “Assay of active substance (area %)” value (Test 2 solid state at 100° C., 3 days)?
**A.** 99.43 area %

**Q.** What about the “Assay of active substance (area %)” value (Test 2 solid state at 100° C., 7 days) of the same molecule?
**A.** 99.40 area %

**Q.** And the Sample observations (Test 3 Acid 60° C., over study period, listed as active substance)?
**A.** Clear colourless solution; also recorded: No change over study period

**Q.** What about the Sample observations (Test 3 Acid (1M, ambient), over study period, listed as active substance) of the same molecule?
**A.** No change over study period; also recorded: Clear colourless solution

**Q.** What about the “Assay of active substance (area %)” value (Test 3 acid (1M) ambient temperature, 3 days) of the same molecule?
**A.** 99.40 area %

**Q.** And the “Assay of active substance (area %)” value (Test 3 acid (1M) ambient temperature, 7 days)?
**A.** 99.41 area %

**Q.** What about the “Assay of active substance (area %)” value (Test 3 acid (1M) at 60° C. until day 7, 80° C. until day 11, 11 days) of the same molecule?
**A.** 98.87 area %

**Q.** And the “Assay of active substance (area %)” value (Test 3 acid (1M) at 60° C., 3 days)?
**A.** 99.37 area %

**Q.** What about the “Assay of active substance (area %)” value (Test 3 acid (1M) at 60° C., 7 days) of the same molecule?
**A.** 99.35 area %

**Q.** What about the Sample observations (Test 4 Base 40° C. (so in the source), over study period, listed as active substance) of the same molecule?
**A.** Clear colourless solution; also recorded: No change over study period

**Q.** And the Sample observations (Test 4 Base (0.5M, ambient), over study period, listed as active substance)?
**A.** Clear colourless solution; also recorded: No change over study period

**Q.** And the “Assay of active substance (area %)” value (Test 4 base (0.5M) ambient temperature, 3 days)?
**A.** 99.40 area %

**Q.** And the “Assay of active substance (area %)” value (Test 4 base (0.5M) ambient temperature, 7 days)?
**A.** 99.37 area %

**Q.** What about the “Assay of active substance (area %)” value (Test 4 base (0.5M) at 60° C. until day 7, 80° C. until day 11, 11 days) of the same molecule?
**A.** 99.16 area %

**Q.** What about the “Assay of active substance (area %)” value (Test 4 base (0.5M) at 60° C., 3 days) of the same molecule?
**A.** 99.34 area %

**Q.** What about the “Assay of active substance (area %)” value (Test 4 base (0.5M) at 60° C., 7 days) of the same molecule?
**A.** 99.32 area %

**Q.** And the Sample observations (Test 5 Heat 60° C. (solution), over study period, listed as active substance)?
**A.** Clear colourless solution; also recorded: No change over study period

**Q.** And the “Assay of active substance (area %)” value (Test 5 solution at 60° C. until day 7, 80° C. until day 11, 11 days)?
**A.** 98.00 area %

**Q.** What about the “Assay of active substance (area %)” value (Test 5 solution at 60° C., 3 days) of the same molecule?
**A.** 99.13 area %

**Q.** And the “Assay of active substance (area %)” value (Test 5 solution at 60° C., 7 days)?
**A.** 99.34 area %

**Q.** What about the Sample observations (Test 6 Peroxide (1.5%), over study period, listed as active substance) of the same molecule?
**A.** Clear colourless solution; also recorded: No change over study period

**Q.** And the “Assay of active substance (area %)” value (Test 6 peroxide (1.5%), 3 days)?
**A.** 98.50 area %

**Q.** What about the “Assay of active substance (area %)” value (Test 6 peroxide (1.5%), 7 days) of the same molecule?
**A.** 97.75 area %

**Q.** What about the “Assay of active substance (area %)” value (Test 6 peroxide (1.5%), 13 days) of the same molecule?
**A.** 96.58 area %

**Q.** And the Sample observations (Test 7 Photostability (Solution Control), listed as active substance)?
**A.** Clear colourless solution; also recorded: No change over study period

**Q.** What about the “Assay of active substance (area %)” value (Test 7 photocontrol solution) of the same molecule?
**A.** 99.40 area %

**Q.** And the “Assay of active substance (area %)” value (Test 8 photo treated solution (1.92 million lux hours, 374.6 Whm^-2 near-UV))?
**A.** 74.53 area %

**Q.** And the Sample observations (Test 9 Photostability (Solid Control))?
**A.** Off white solid. No change over study period.

**Q.** And the “Assay of active substance (area %)” value (Test 9 photocontrol solid)?
**A.** 99.40 area %

**Q.** What about the Sample observations (Test 10 Photostability (Solid Treated), listed as active substance) of the same molecule?
**A.** orange solid over study period.

**Q.** What about the “Assay of active substance (area %)” value (Test 10 phototreated solid (1.92 million lux hours, 374.6 Whm^-2 near-UV)) of the same molecule?
**A.** 99.31 area %

**Q.** What about the Forced degradation outcome (as a solution under photostability conditions) of the same molecule?
**A.** Major degradation

**Q.** What about the Forced degradation outcome (peroxide conditions, 1M acid and 0.5M base extended to 80° C., solution heated to 80° C.) of the same molecule?
**A.** slight degradation

**Q.** What about the Forced degradation outcome (solution at room temperature, solid at 100° C., 1M acid and 0.5M base at room temperature and 60° C., solution at 60° C., photostability as a solid) of the same molecule?
**A.** stable to degradation
